Assay: Human HepG2 cell viability assay in 384 well format
Type: toxicity, cell-based
Parameters: dose 125 nL, time 70.5 hour; cytotoxicity at 70.5 h: concentration not given beside the values
Details: HepG2 cells, read-out: Inhibition

Row | Compound | cytotoxicity at 70.5 h [%]
1 | CC(=O)N1CCN(C(=O)c2cccc(OCc3cscn3)c2)CC1 | 0.43
2 | CCCc1cnc(C)nc1N1CCC(Cc2cccc(C(N)=O)c2)C1 (configuration not stated) | -2.67
3 | Cc1cc(NC2CCC(=O)N(C)C2)n2nccc2n1 (configuration not stated) | -9.21
4 | Cc1c(C(=O)O)nnn1-c1cccc2cccnc12 | -13.1
5 | COc1ccc(C(=O)N2CCC(Oc3ccc(C)cc3)(C(=O)O)CC2)o1 | 0.709
6 | Cc1cnn(CC2CCCN2Cc2nc(C)c3ccccc3n2)c1 (configuration not stated) | 1.46
7 | Cc1nnc(NC(=O)NCc2ccc(F)cc2)s1 | -1.95
8 | CC(C)[C@@H]1CN(C(=O)CN(C)Cc2ccc(F)cc2)C[C@H]1C(=O)O | -1.04
9 | O=C(NCC(O)c1ccoc1)Nc1cccs1 (configuration not stated) | -6.41
10 | CC(=O)c1c(F)cccc1N1CCC(NS(=O)(=O)c2ccccc2)CC1 | 1.15
11 | CC(C)n1nc(CN2CCCCC2)c2c1CN(C(=O)c1ccno1)C2 | -8.4
12 | CCCS(=O)(=O)Nc1ccc2c(c1)OCC(C)(C)C(=O)N2C | 7.24
13 | COCCN1C(=O)[C@H]2CC[C@@H]1CN(C(=O)CCc1n[nH]c(C)c1C)C2 | -13.9
14 | Cc1cnn(CC2CCCN2C(=O)c2sccc2C#N)c1 (configuration not stated) | -2.76
15 | Cn1ccnc1NC[C@@H]1CCC[C@@H]2CN(Cc3cccnc3)C[C@@H]21 | 14.5
16 | COCCCC(=O)N(CCC(=O)O)Cc1ccc(F)c(F)c1 | -12.3
17 | CCOc1cccc2c1OCC(C(=O)NS(=O)(=O)c1ccc(C)s1)=C2 | -4.35
18 | Cc1ccsc1[C@@H]1CCN(C(=O)CCc2n[nH]c(C)c2C)C[C@H]1O | 0.289
19 | CCNc1cc2c(nn1)CCN(C(=O)CC1CCCC1)C2 | -5.46
20 | COc1cccc(CN(Cc2ccco2)Cc2cnc(C)n2C)c1 | 3.46
21 | CC(C)S(=O)(=O)N1CCC(c2[nH]ncc2S(C)(=O)=O)C1 (configuration not stated) | -2.31
22 | Cc1ccc(N2CCC3(CN(Cc4ccncc4)CCC3(F)F)C2)nn1 (configuration not stated) | -1.36
23 | Cc1nccc(C(=O)N2CCOC(c3nc(C(C)C)n[nH]3)C2)n1 (configuration not stated) | -5.71

Row | Compound | cytotoxicity at 70.5 h [%]
24 | Cc1cc(N2CCC(N(C)Cc3cc(=O)c(O)co3)CC2)nc(C)n1 | -7
25 | CCn1c(CN2CCCC2)nnc1C1CCN(Cc2ccccn2)CC1 | 18.4
26 | CCn1cc(S(=O)(=O)N(C)Cc2c(Br)cnn2CC)c(C)n1 | 1.71
27 | CCCc1nnc(N2CCN(Cc3ccccc3OC)CC2)o1 | 23.6
28 | NC1CCN(C(=O)c2c(F)cccc2Br)CC1 | -15.6
29 | CC(=O)NCCCC(=O)N1CCC(Sc2cccc(C)c2)CC1 | -12.1
30 | CC(C)CN1C(=O)C2(CCN(Cc3nccs3)C2)c2ccccc21 (configuration not stated) | -1.93
31 | Cc1ncc(CNC2CCc3nc(C(C)C)nn3C2)s1 (configuration not stated) | 1.67
32 | CC(C)Oc1cccc(CC(=O)NC2CCN(CC(N)=O)CC2)c1 | -10.1
33 | CSCCCN1C[C@H](NC(=O)c2ccc(CO)cc2)[C@@H](C2CC2)C1 | -9.41
34 | CC(C)c1nnc(CN(C)Cc2ccccc2-c2ccccc2)o1 | -6.61
35 | Cc1nnc(N2CC[C@H]3C[C@@H](C(=O)N4CCCC4)O[C@H]3C2)s1 | 12.6
36 | Cc1nn2cccnc2c1C(=O)N1CCCC(n2cccn2)C1 (configuration not stated) | 17.9
37 | CN(CCCc1ccccc1)C(=O)CCc1nc(-c2nnc[nH]2)no1 | -0.426
38 | c1ccc2c(NCC3(N4CCOCC4)CCSC3)ncnc2c1 (configuration not stated) | 2.49
39 | CN(C)S(=O)(=O)N1CC(c2nc(N)ncc2-c2ccc(F)cc2)C1 | -0.38
40 | CCc1nc(CN(C)C(=O)NCc2cccc(NC(C)=O)c2)cs1 | -10.2
41 | CCCNC(=O)C(C)Oc1ccccc1 (configuration not stated) | -5.34
42 | Cc1ccc(CNc2ccn(CCC(N)=O)n2)c(Br)c1 | 8.15
43 | CC(C)OC(=O)c1ccc(Cl)c(NC(=O)NCCN2CCOCC2)c1 | -7.91
44 | CC(C)n1cc(CN2CCCN(C(=O)c3cccnc3O)CC2)cn1 | -2.94
45 | Cc1c(C(C)NCc2cnn(C)c2)cnn1-c1ccccc1 (configuration not stated) | 2.44
46 | CN(Cc1cnc(N)nc1)C(=O)C1CCN(C(=O)C2CCCC2)CC1 | -4.62

Row | Compound | cytotoxicity at 70.5 h [%]
47 | CC(C)Nc1nc(N2CCCC2)nc2c1CN(C)CC2 | -9.83
48 | CSCc1cccc(S(=O)(=O)N2CCCCCC2)c1 | -4.01
49 | COc1ccc(CNCC(O)c2cccc(O)c2)cc1Br (configuration not stated) | -3.02
50 | Cc1cccc(Nc2nccnc2C2CCCN2CC(=O)N(C)C)n1 (configuration not stated) | 18.8
51 | NCCC1CN(c2nc(-c3ccccc3)nc3c2CCNC3)CCO1 (configuration not stated) | 2.96
52 | CCC1CN(CCC(=O)N(C)C)CCN1CCOC (configuration not stated) | -8.66
53 | N#CCCN(CCC#N)Cc1ccc(Br)c2cccnc12 | 4.54
54 | Cc1nc2cc(O)nn2c(C)c1CCC(=O)N(C)Cc1ccccc1 | 2.7
55 | c1nc2c(c(N3CCOCC3)n1)CCNCC2 | -4.52
56 | COc1cccc(CN2CCN(c3noc(C(C)C)n3)CC2)c1F | 1.87
57 | Cn1nccc1-c1cccc(CC2CCN(S(C)(=O)=O)C2)n1 (configuration not stated) | -4.28
58 | Cc1ccc(C2CCCN2S(=O)(=O)N(C)Cc2nccn2C)o1 (configuration not stated) | 5.77
59 | Cc1ccc(NC2CCN(C(=O)CCc3ccsc3)CC2)nn1 | -7.65
60 | O=C(O)C(c1ccc2c(c1)OCO2)N1CCCCCC1 (configuration not stated) | -1.77
61 | Cc1ccc(C(=O)NCCC2CN(c3cnn(C)c(=O)c3)CCO2)s1 (configuration not stated) | -3.44
62 | Cc1ccccc1-n1cc(-c2ccnc(N3CCCC(CN)C3)n2)cn1 (configuration not stated) | -7.47
63 | Cc1csc(C(Cc2ccsc2)NC(=O)CN(C)Cc2cccnc2)n1 (configuration not stated) | -0.677
64 | Cc1cc(CN(C)C(=O)NC(C)Cc2ccc(O)cc2)no1 (configuration not stated) | 0.825
65 | Cc1cc(CN2CCCC2)cc(Oc2ccc3c(c2)CC(CN)O3)c1 (configuration not stated) | -11.7
66 | CN(C)C(=O)CN1CCN(C(=O)c2cnn(-c3ccccc3Cl)c2)CC1 | -13.6
67 | CCC[C@H]1CN(S(=O)(=O)c2ccc(Cl)cc2)C[C@@H]1NC(C)=O | 22.5
68 | CN(Cc1cc(-c2ccncc2)no1)C(=O)[C@@H]1CSCN1C | -13.1
69 | Cn1c(=O)c2cc(C(=O)NCCOCC(F)(F)F)ccc2n(C)c1=O | 25.9

Row | Compound | cytotoxicity at 70.5 h [%]
70 | O=C(Cc1ccc2c(c1)OCCO2)NCc1ccc(-n2cncn2)nc1 | -2.42
71 | O=C(Nc1cc(-c2ccncc2)no1)C1CCC1 | -10.3
72 | O=C(CC1CC1)N[C@@H]1CN(Cc2ccoc2)C[C@@H]2CCCO[C@@H]21 | 14
73 | COc1ccc(S(=O)(=O)N2C[C@H](OC)[C@]3(CCCO3)C2)cc1 | -16.2
74 | Nc1nc2c(c(NCC(c3cccnc3)N3CCOCC3)n1)CCCC2 (configuration not stated) | -12.1
75 | CC(Nc1cccc2c1OCCO2)C(=O)Nc1ccc(S(N)(=O)=O)cc1 (configuration not stated) | 25.1
76 | CC(C)(N)CN1CCC(c2nnc(CN3CCCC3)n2C2CC2)CC1 | -0.439
77 | CCS(=O)(=O)N1CCC2(COCc3cnc(N4CCOCC4)nc32)C1 (configuration not stated) | -6.84
78 | c1csc(C2(NCc3csc(C4CC4)n3)CCCC2)n1 | -7.26
79 | CCn1nc(C)c2ncnc(NCC(=O)N3CCOCC3)c21 | -11.2
80 | O=C(c1cc(-c2cn[nH]c2)nc2ccc(F)cc12)N1CCSCC1 | -5.34
81 | Cc1ccc(N2CCC(C(=O)NC3CCc4nccn4C3)CC2)nc1 (configuration not stated) | -90.5
82 | O=C1CC[C@@H](CN(Cc2ccncc2)Cc2nc(CC3CC3)no2)N1 | -5.49
83 | CCN1CCCC1Cn1ccc2ccc(C(=O)OC)cc2c1=O (configuration not stated) | -8.61
84 | Cc1nccc(CN2Cc3nccn3CC2c2ccccc2)n1 (configuration not stated) | -4.01
85 | Cc1ccc(C(=O)N2CCCC(c3cc(C(F)(F)F)[nH]n3)C2)o1 (configuration not stated) | -5.23
86 | CC(C)c1ccc(OCCC(=O)N(C)CC(N)=O)cc1 | -12.9
87 | c1cc(-c2c[nH]c([C@@H]3COCCN3CC3CC3)n2)ccn1 | -1.9
88 | Cc1ccc(F)c(OC2(C(=O)O)CCN(C(=O)c3ccncc3)CC2)c1 | -4.46
89 | Cc1nc(CN(C)C2CCN(Cc3cnc(C)s3)C2)no1 (configuration not stated) | -3.46
90 | CCN(CC)Cc1ccc(C(=O)NC2CCc3cc(Cl)ccc32)o1 (configuration not stated) | 21.2
91 | COc1ccc(C(=O)N2C[C@@H](CN3CCCC3)[C@@H](CO)C2)c(C)c1 | -8.12
92 | CC(C)c1nc(C2CCCN2CCOCC2CC2)no1 (configuration not stated) | -15.5

Row | Compound | cytotoxicity at 70.5 h [%]
93 | Cn1cc(CN2CCC3(CC2)CN(c2cccnc2)C(=O)CO3)cn1 | -5.12
94 | CC(=O)N1CCN(C(=O)NCCCc2cn[nH]c2C)CC1 | -14.4
95 | COCC(=O)Nc1ccc(N2CCC(OC)CC2)c(C(F)(F)F)c1 | -0.835
96 | Cc1cnn(CCNCc2ccc(C#N)cc2F)c1 | -13.7
97 | Cc1noc(C)c1CN1CCN(Cc2nccn2C)C(C)C1 (configuration not stated) | -11.9
98 | Cc1cnc(N2CC[C@H]3[C@H](C[C@@H](CN(C)C)N3C)C2)nc1 | -6.09
99 | Cc1nc(CN2C(=O)C[C@@H]3[C@@H]2CCN3S(=O)(=O)C2CC2)cs1 | 19.1
100 | Cc1cncc(C(=O)N2CCCCC2c2nc(C)cs2)c1 (configuration not stated) | 17.3
101 | CSc1cccc(CNC(=O)C2CC(=O)N(C3CC3)C2)c1 (configuration not stated) | -1.83
102 | Cc1cc(NC(=O)N(Cc2ccc(C#N)cc2)C(C)C)no1 | -13.2
103 | COCc1cn(CC2CCN(Cc3c(C)[nH]c4ccccc34)CC2)nn1 | -7.19
104 | Cc1cc(N2CCCN(c3ccnc(C)c3)CC2)ccn1 | -7.78
105 | CN(c1c(F)cccc1F)S(=O)(=O)c1cc2c(c(C(=O)O)c1)OCCO2 | 9.94
106 | CC(C)CN1CCN(C(=O)c2ccn(C)c(=O)c2)CC1 | -9.05
107 | CCOCCN1CCN(CC(=O)NC2(C#N)CCCC2)CC1C (configuration not stated) | 10.7
108 | COC(=O)c1cccc(C(=O)N2CCN(c3cc(Cl)ccc3C)CC2)n1 | -2.22
109 | O=C(O)C(c1cccc2c1OCC2)N1CCC(N2CCCC2)CC1 (configuration not stated) | -0.16
110 | CC(CCc1ccco1)NC(=O)Nc1cc(C(F)(F)F)c[nH]c1=O (configuration not stated) | 0.203
111 | CCNC(=O)c1ccc(CNCc2c(C)nn(C)c2N(C)C)cc1 | 24.8
112 | CC(=O)NCc1cc2n(n1)CCN(Cc1ccccc1OC(F)(F)F)C2 | -3.35

Reference: ChEMBL document CHEMBL3507680, “University of Dundee, Gates Library screen for HepG2 cell viability”
